From US8492387B2, “2-aminoimidazole beta-secretase inhibitors for the treatment of alzheimer's disease” (Merck, Sharp & Dohme, Corp., priority 2008, dated 2013) come the findings set out here.

The structures appear in SMILES notation.

In the assay the target is BACE 1 (beta-secretase enzyme) (Homo sapiens (Human), UniProt P56817). Briefly: ECL Assay (homogeneous end point electrochemiluminescence assay with biotinylated BACE substrate). In kind it is biochemical. The note with it: soluble human enzyme, pH 6.5, rt. On the procedure: Enzyme inhibition is determined as follows.
Sequence of BACE 1 (beta-secretase enzyme) (P56817 46-457): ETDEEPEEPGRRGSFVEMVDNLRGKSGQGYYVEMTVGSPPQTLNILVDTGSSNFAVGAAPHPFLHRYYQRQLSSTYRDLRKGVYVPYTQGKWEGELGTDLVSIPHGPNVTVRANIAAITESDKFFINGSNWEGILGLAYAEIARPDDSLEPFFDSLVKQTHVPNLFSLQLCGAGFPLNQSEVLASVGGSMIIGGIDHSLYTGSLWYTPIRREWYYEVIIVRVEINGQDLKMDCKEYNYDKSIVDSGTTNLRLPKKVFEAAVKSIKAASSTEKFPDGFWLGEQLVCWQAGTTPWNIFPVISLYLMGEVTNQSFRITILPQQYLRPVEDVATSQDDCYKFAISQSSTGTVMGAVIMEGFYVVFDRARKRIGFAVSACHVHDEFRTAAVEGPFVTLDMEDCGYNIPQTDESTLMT
ECL Assay: A homogeneous end point electrochemiluminescence (ECL) assay is performed using a biotinylated BACE substrate. The Km of the substrate is approximated at 50 μM. A typical reaction contains approximately 0.6 nM enzyme, 0.25 μM of the substrate, and buffer (50 mM Pipes, pH 6.5, 0.1 mg/ml BSA, 0.2% CHAPS, 15 mM EDTA and 1 mM deferoxamine) in a total reaction volume of 100 μl. The reaction proceeds for 1-2 hrs and is then stopped by the addition of 150 μL of a quench cocktail solution ([…], pH 8.0, 50 μL INC buffer (2% BSA, 0.2% Tween-20 and 0.05% sodium azide diluted in phosphate buffered saline (PBS) plus 75 μL, PBS), containing streptavadin coated magnetic beads and ruthenylated antibody which specifically recognizes the C-terminal residue of the product. The samples are subjected to M-384 (Igen Inc., Gaithersburg, Md.) analysis. Under these conditions, less than 10% of substrate is processed by BACE 1. The enzyme used in these studies is soluble (transmembrane domain and cytoplasmic extension excluded) human protein produced in a baculovirus expression system. To measure the inhibitory potency for compounds, 10 concentrations of inhibitors are prepared starting from 200 μM with three fold series dilution. Solutions of the inhibitor in DMSO are included in the reaction mixture (final DMSO concentration is 10%). All experiments are conducted at rt using the standard reaction conditions described above. To determine the IC50 of the compound, a four parameter equation is used for curve fitting. The errors in reproducing the dissociation constants are typically less than two-fold.
For `Cn1cc(C2(Cc3ccccc3)CCc3ccccc32)nc1N` (centres unmarked) [Example 3, 4-(1-benzyl-2,3-dihydro-1H-inden-1-yl)-1-methyl-1H-imidazol-2-amine], the half-inhibitory concentration (IC50) came out at 12 µM.
For the molecule `COc1ccc(C(Cc2ccc(-c3ccc(O)nc3)cc2)c2cn(C)c(N)n2)cc1` (centres unmarked) [Example 55, 5-{4-[2-(2-amino-1-methyl-1H-imidazol-4-yl)-2-(4-methoxyphenyl)ethyl]phenyl}pyridin-2-ol], the IC50 came to 17 µM.
Next, `COc1ccc(C(Cc2cccc(-c3ccc(C(F)(F)F)cc3Cl)c2)c2cn(C)c(N)n2)cc1` (centres unmarked) [Example 34, 4-[2-[2′-chloro-4′-(trifluoromethyl)biphenyl-3-yl]-1-(4-methoxyphenyl)ethyl]-1-methyl-1H-imidazol-2-amine]: 11 µM; `COc1ccc2c(c1)CCC2(Cc1ccc(C(F)(F)F)nc1)c1cn(CCCO)c(N)n1` (centres unmarked) [Example 115, 3-[2-amino-4-(5-methoxy-1-{[6-(trifluoromethyl)pyridin-3-yl]methyl}-2,3-dihydro-1H-inden-1-yl)-1H-imidazol-1-yl]propan-1-ol]: 3.3 µM.
Next, `COc1ccc2c(c1)CCC2(Cc1cc([N+](=O)[O-])ccc1OC)c1cn(C)c(N)n1` (centres unmarked) [Example 111, 4-[5-methoxy-1-(2-methoxy-5-nitrobenzyl)-2,3-dihydro-1H-inden-1-yl]-1-methyl-1H-imidazol-2-amine]: 3.2 µM; `COc1ccc2c(c1)CCC2(Cc1ccc(C(F)(F)F)nc1)c1cn(Cc2ccccc2)c(N)n1` (centres unmarked) [Example 114, 1-benzyl-4-(5-methoxy-1-{[6-(trifluoromethyl)pyridin-3-yl]methyl}-2,3-dihydro-1H-inden-1-yl)-1H-imidazol-2-amine]: 0.063 µM; `COc1ccc([C@H](Cc2ccc(C(F)(F)F)cc2)c2nc(N)[nH]c2C(O)c2ccccc2)cc1` (stereo partly drawn) [Example 2, (2-amino-4-{(1S)-1-(4-methoxyphenyl)-2-[4-(trifluoromethyl)phenyl]ethyl}-1H-imidazole-5-yl) (phenyl)methanol]: 5 µM.
`COc1ccc(C2(c3cn(C)c(N)n3)CCCCC2)cc1` [Example 41, 4-[1-(4-methoxyphenyl)cyclohexyl]-1-methyl-1H-imidazol-2-amine] gave an IC50 of 27 µM.
